How the values were obtained:
Assay type in all cases: functional, cell-based
[1] = test system: HOP-92; assay: Antiproliferative activity against human HOP-92 cells measured after 48 hrs by SRB assay
[2] = test system: A498; assay: Antiproliferative activity against human A498 cells measured after 48 hrs by SRB assay
[3] = test system: ACHN; assay: Antiproliferative activity against human ACHN cells measured after 48 hrs by SRB assay
[4] = test system: SK-MEL-5; assay: Antiproliferative activity against human SK-MEL-5 cells measured after 48 hrs by SRB assay
[5] = test system: M14; assay: Antiproliferative activity against human M14 cells measured after 48 hrs by SRB assay
[6] = test system: SW-620; assay: Antiproliferative activity against human SW-620 cells measured after 48 hrs by SRB assay
[7] = test system: MDA-MB-231; assay: Antiproliferative activity against human MDA-MB-231 cells measured after 48 hrs by SRB assay
[8] = test system: SF-268; assay: Antiproliferative activity against human SF-268 cells measured after 48 hrs by SRB assay
[9] = test system: HCT-116; assay: Antiproliferative activity against human HCT-116 cells measured after 48 hrs by SRB assay
[10] = test system: SNB-75; assay: Antiproliferative activity against human SNB-75 cells measured after 48 hrs by SRB assay
[11] = test system: OVCAR-3; assay: Antiproliferative activity against human OVCAR-3 cells measured after 48 hrs by SRB assay
[12] = test system: CAKI-1; assay: Antiproliferative activity against human CAKI-1 cells measured after 48 hrs by SRB assay
[13] = test system: K562; assay: Antiproliferative activity against human K562 cells measured after 48 hrs by SRB assay
[14] = test system: NCI-H322M; assay: Antiproliferative activity against human NCI-H322M cells measured after 48 hrs by SRB assay
[15] = test system: A549; assay: Antiproliferative activity against human A549 cells measured after 48 hrs by SRB assay
[16] = test system: WI-38; assay: Antiproliferative activity against human WI-38 cells measured by MTT assay
[17] = test system: COLO 205; assay: Antiproliferative activity against human COLO 205 cells measured after 48 hrs by SRB assay
[18] = test system: RXF 393; assay: Antiproliferative activity against human RXF 393 cells measured after 48 hrs by SRB assay
[19] = test system: OVCAR-5; assay: Antiproliferative activity against human OVCAR-5 cells measured after 48 hrs by SRB assay
[20] = test system: CCRF-CEM; assay: Antiproliferative activity against human CCRF-CEM cells measured after 48 hrs by SRB assay
[21] = test system: NCI/ADR-RES; assay: Antiproliferative activity against human NCI-ADR-RES cells measured after 48 hrs by SRB assay
[22] = test system: HL-60(TB); assay: Antiproliferative activity against human HL-60(TB) cells measured after 48 hrs by SRB assay
[23] = test system: SF-295; assay: Antiproliferative activity against human SF-295 cells measured after 48 hrs by SRB assay
[24] = test system: TK-10; assay: Antiproliferative activity against human TK-10 cells measured after 48 hrs by SRB assay
[25] = test system: MOLT-4; assay: Antiproliferative activity against human MOLT-4 cells measured after 48 hrs by SRB assay
[26] = test system: SK-OV-3; assay: Antiproliferative activity against human SK-OV-3 cells measured after 48 hrs by SRB assay
[27] = test system: RPMI-8226; assay: Antiproliferative activity against human RPMI-8226 cells measured after 48 hrs by SRB assay
[28] = test system: PC-3; assay: Antiproliferative activity against human PC-3 cells measured after 48 hrs by SRB assay
[29] = test system: UACC-257; assay: Antiproliferative activity against human UACC-257 cells measured after 48 hrs by SRB assay
[30] = test system: KM12; assay: Antiproliferative activity against human KM12 cells measured after 48 hrs by SRB assay
[31] = test system: UACC-62; assay: Antiproliferative activity against human UACC-62 cells measured after 48 hrs by SRB assay
[32] = test system: MDA-MB-435; assay: Antiproliferative activity against human MDA-MB-435 cells measured after 48 hrs by SRB assay
[33] = test system: SK-MEL-2; assay: Antiproliferative activity against human SK-MEL-2 cells measured after 48 hrs by SRB assay
[34] = test system: NCI-H460; assay: Antiproliferative activity against human NCI-H460 cells measured after 48 hrs by SRB assay
[35] = test system: SK-MEL-28; assay: Antiproliferative activity against human SK-MEL-28 cells measured after 48 hrs by SRB assay
[36] = test system: OVCAR-4; assay: Antiproliferative activity against human OVCAR-4 cells measured after 48 hrs by SRB assay

O=C1c2ccccc2-c2n[nH]c3cccc1c23
IC50 ([1]; HOP-92, 48 h): 37.6 µM
TGI ([1]; HOP-92, time 48 hrs): > 100 µM
IC50 ([2]; A498, 48 h): 7.03 µM
TGI ([2]; A498, time 48 hrs): 35.4 µM
IC50 ([3]; 48 h): 6.64 µM
TGI ([3]; time 48 hrs): > 100 µM
IC50 ([4]; SK-MEL-5, 48 h): 14.6 µM
TGI ([4]; SK-MEL-5, time 48 hrs): 37.5 µM
IC50 ([5]; M14, 48 h): > 100 µM
TGI ([5]; M14, time 48 hrs): > 100 µM
IC50 ([6]; SW-620, 48 h): 10.9 µM
TGI ([6]; SW-620, time 48 hrs): > 100 µM
IC50 ([7]; MDA-MB-231, 48 h): 65.3 µM
TGI ([7]; MDA-MB-231, time 48 hrs): > 100 µM
IC50 ([8]; SF-268, 48 h): 18.4 µM
TGI ([8]; SF-268, time 48 hrs): > 100 µM
IC50 ([9]; HCT-116, 48 h): 44.6 µM
TGI ([9]; HCT-116, time 48 hrs): > 100 µM
IC50 ([10]; SNB-75, 48 h): 16.9 µM
TGI ([10]; SNB-75, time 48 hrs): 97.5 µM
IC50 ([11]; OVCAR-3, 48 h): 15.3 µM
TGI ([11]; OVCAR-3, time 48 hrs): 92 µM
IC50 ([12]; CAKI-1, 48 h): 3.56 µM
TGI ([12]; CAKI-1, time 48 hrs): 18.2 µM
IC50 ([13]; K562, 48 h): 48.6 µM
TGI ([13]; K562, time 48 hrs): > 100 µM
IC50 ([14]; 48 h): 24.9 µM
TGI ([14]; time 48 hrs): > 100 µM
IC50 ([15]; A549, 48 h): 14.9 µM
TGI ([15]; A549, time 48 hrs): > 100 µM
IC50 [16]: > 20 µM
IC50 ([17]; COLO 205, 48 h): 19.5 µM
TGI ([17]; COLO 205, time 48 hrs): > 100 µM
IC50 ([18]; RXF 393, 48 h): 20.8 µM
TGI ([18]; RXF 393, time 48 hrs): > 100 µM
IC50 ([19]; OVCAR-5, 48 h): 24.4 µM
TGI ([19]; OVCAR-5, time 48 hrs): 85.5 µM
IC50 ([20]; 48 h): 16 µM
TGI ([20]; time 48 hrs): > 100 µM
IC50 ([21]; 48 h): 22.6 µM
TGI ([21]; time 48 hrs): 59.2 µM
IC50 ([22]; HL-60, 48 h): 42.1 µM
TGI ([22]; HL-60, time 48 hrs): > 100 µM
IC50 ([23]; SF-295, 48 h): 22.5 µM
TGI ([23]; SF-295, time 48 hrs): 86.3 µM
IC50 ([24]; TK-10, 48 h): 5.93 µM
TGI ([24]; TK-10, time 48 hrs): 52 µM
IC50 ([25]; MOLT-4, 48 h): 20.4 µM
TGI ([25]; MOLT-4, time 48 hrs): > 100 µM
IC50 ([26]; SK-OV-3, 48 h): 21 µM
TGI ([26]; SK-OV-3, time 48 hrs): > 100 µM
IC50 ([27]; RPMI-8226, 48 h): 18.8 µM
TGI ([27]; RPMI-8226, time 48 hrs): > 100 µM
IC50 ([28]; PC-3, 48 h): 23.3 µM
TGI ([28]; PC-3, time 48 hrs): > 100 µM
IC50 ([29]; UACC-257, 48 h): 29.5 µM
TGI ([29]; UACC-257, time 48 hrs): > 100 µM
IC50 ([30]; KM12, 48 h): 2.62 µM
TGI ([30]; KM12, time 48 hrs): 72.1 µM
IC50 ([31]; UACC-62, 48 h): 14.6 µM
TGI ([31]; UACC-62, time 48 hrs): 86.5 µM
IC50 ([32]; MDA-MB-435, 48 h): 12.8 µM
TGI ([32]; MDA-MB-435, time 48 hrs): > 100 µM
IC50 ([33]; SK-MEL-2, 48 h): 29 µM
TGI ([33]; SK-MEL-2, time 48 hrs): > 100 µM
IC50 ([34]; NCI-H460, 48 h): 9.86 µM
TGI ([34]; NCI-H460, time 48 hrs): > 100 µM
IC50 ([35]; SK-MEL-28, 48 h): 37.5 µM
TGI ([35]; SK-MEL-28, time 48 hrs): > 100 µM
IC50 ([36]; OVCAR-4, 48 h): 31.9 µM
TGI ([36]; OVCAR-4, time 48 hrs): > 100 µM
